Reference: ChEMBL document CHEMBL1146082, “Development of a structural model for NF-kappaB inhibition of sesquiterpene lactones using self-organizing neural networks” (J Med Chem, 2006)

biological target: Transcription factor p65 (Homo sapiens) (UniProt Q04206); experiment: Inhibition of NF-kappaB DNA binding by EMSA
Sequence (Q04206 whole entry): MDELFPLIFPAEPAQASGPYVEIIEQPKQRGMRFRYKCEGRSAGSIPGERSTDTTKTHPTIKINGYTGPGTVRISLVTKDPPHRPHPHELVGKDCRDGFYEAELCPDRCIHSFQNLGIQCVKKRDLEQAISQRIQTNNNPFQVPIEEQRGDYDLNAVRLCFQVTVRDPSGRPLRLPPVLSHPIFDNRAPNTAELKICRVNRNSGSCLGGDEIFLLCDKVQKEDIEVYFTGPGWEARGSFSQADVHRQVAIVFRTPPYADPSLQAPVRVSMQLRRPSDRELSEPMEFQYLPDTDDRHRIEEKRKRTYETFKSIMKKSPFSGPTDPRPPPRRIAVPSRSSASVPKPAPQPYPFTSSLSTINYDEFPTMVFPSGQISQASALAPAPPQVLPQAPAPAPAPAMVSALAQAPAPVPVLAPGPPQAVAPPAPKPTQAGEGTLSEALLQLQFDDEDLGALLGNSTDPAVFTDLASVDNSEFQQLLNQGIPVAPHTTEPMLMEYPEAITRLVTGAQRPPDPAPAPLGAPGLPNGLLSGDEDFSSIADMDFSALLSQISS

Point of comparison: `C=C(C)C(=O)O[C@H]1[C@H]2C(=C)C(=O)O[C@@H]2[C@@H]2O[C@]2(C)CC/C=C(/C=O)[C@@H]1O`, IC100 10 µM. Against it:
- C=C(C)C(=O)O[C@H]1/C(C=O)=C\CC/C(COC(C)=O)=C/[C@H]2OC(=O)C(=C)[C@@H]2[C@@H]1O — 2-fold lower, 5 µM
- C=C1C(=O)O[C@H]2/C=C(\C)[C@@H](O)CC/C(C)=C/[C@@H](O)[C@H]12 — 20-fold higher, 200 µM
- C=C1C(=O)O[C@H]2CC(=C)[C@H](O)CC/C(C)=C/[C@@H](O)[C@H]12 — 5-fold higher, 50 µM
- C=C1C(=O)O[C@@H]2[C@H]3C(C)=C(Cl)C(=O)C3=C(C)CC[C@@H]12 — 2-fold higher, 20 µM
- C=C(C)C(=O)O[C@@H]1/C=C(\C=O)[C@H](OC)CCC(=C)[C@H](O)[C@H]2OC(=O)C(=C)[C@@H]21 — the same, 10 µM
- C=C1[C@H](O)C[C@H](O)[C@]2(C)CC[C@H]3C(=C)C(=O)O[C@@H]3[C@@H]12 — 10-fold higher, 100 µM
- C=C1C(=O)O[C@]23C[C@H]1CCC(COC(C)=O)=C2C(=O)C=C3C — 10-fold higher, 100 µM
- C=C1C(=O)O[C@@H]2C[C@@]3(C)[C@H](OC(C)=O)CC[C@](O)(COC(=O)C(C)C)[C@@H]3C[C@H]12 — 10-fold higher, 100 µM
- C=C1C(=O)O[C@@H]2[C@H]3C(C)=CC(=O)C3=C(C)C[C@@H](OC(=O)[C@]3(C)O[C@@H]3C)[C@@H]12 — 2-fold higher, 20 µM
- C=C1C(=O)O[C@@H]2C[C@H](C)C3=C(C[C@H]12)[C@@H](C)CC3=O — 2-fold higher, 20 µM
- C=C(C)C(=O)O[C@@H]1/C=C(\C=O)CCC[C@@]2(CO2)[C@H](O)[C@H]2OC(=O)C(=C)[C@@H]21 — 2-fold lower, 5 µM
- C=C1C(=O)O[C@H]2[C@H]1CCC(C)=C1C(=O)[C@H]3O[C@@]3(C)[C@@H]12 — 2-fold lower, 5 µM
- C=C1C(=O)O[C@H]2C/C(CO)=C/CC/C(COC(=O)C3(C)CO3)=C/C[C@H]12 (stereo partly specified) — 5-fold higher, 50 µM
- C/C=C(\C)C(=O)O[C@H]1[C@@H]2[C@H](C)C(=O)O[C@@H]2C[C@@H](C)[C@@H]2C=CC(=O)[C@]21C — 10-fold higher, 100 µM
- C=C1C(=O)C[C@H]2C(=C)C(=O)O[C@@H]2/C=C(\COC(=O)C(C)C)CC[C@H]1OC — 2.5-fold higher, 25 µM
- C=C1[C@@H]2[C@H]3OC(=O)C(=C)[C@@H]3CCC(=C)[C@@H]2C[C@@H]1OC(=O)C=C(C)C — 20-fold higher, 200 µM
- C=C1C(=O)O[C@H]2[C@H]1[C@@H](OC(=O)/C(C)=C/C)C/C(C)=C/C(=O)/C=C(/C)[C@@H]2O — the same, 10 µM
- C=C(C)C(=O)O[C@H]1[C@H]2C(=C)C(=O)O[C@@H]2[C@@H](O)C(=C)CC/C=C(/C=O)[C@@H]1OC — 5-fold higher, 50 µM
- C=C1C(=O)O[C@H]2/C=C(\C)CC/C=C(\C)[C@@H](OC(=O)[C@@]3(C)O[C@H]3C)[C@H](O)[C@@H]12 — 5-fold higher, 50 µM
- C=C(C)C(=O)O[C@H]1C[C@@]2(C)OC(=CC2=O)C(=C)[C@@H](O)[C@H]2OC(=O)C(=C)[C@@H]21 — the same, 10 µM
- C=C1C(=O)O[C@H]2C/C(CO)=C/CC/C(COC(=O)C(C)CO)=C/C[C@H]12 (stereo partly specified) — 10-fold higher, 100 µM
- C=C1[C@@H]2[C@H]3OC(=O)C(=C)[C@@H]3CCC(=C)[C@@H]2C[C@@H]1OC(C)=O — 10-fold higher, 100 µM
- C=C1C(=O)O[C@@H]2/C=C(\C)CC/C=C(/C)CC[C@@]12O — the same, 10 µM
- C=C(C)C(=O)O[C@H]1[C@H]2C(=C)C(=O)O[C@@H]2/C=C(\COC(C)=O)CC/C=C(/C=O)[C@@H]1O — 2-fold lower, 5 µM
- C=C1C(=O)O[C@@H]2/C=C(/C)C3=CC(=O)[C@@](C)(C[C@@H](OC(=O)/C(C)=C\C)[C@@H]12)O3 — 2-fold lower, 5 µM
- C=C1C(=O)O[C@@H]2C[C@@H](C)[C@@H]3C=CC(=O)[C@@]3(C)[C@@H](O)[C@H]12 — the same, 10 µM
- C=C1C(=O)C=C2[C@H]1C[C@@H]1C(=C)C(=O)O[C@H]1C[C@@H]2C — 2-fold lower, 5 µM
- C=C(C)C(=O)O[C@@H]1C[C@](C)(O)[C@@H]2C(=O)C=C(C)[C@@H]2[C@H]2OC(=O)C(=C)[C@@H]21 — 5-fold higher, 50 µM
- C=C1C(=O)O[C@@H]2[C@H]3C(CO)=CC(=O)C3=C(C)CC[C@@H]12 — 5-fold higher, 50 µM
- C=C(C)C(=O)O[C@@H]1[C@@H]2C(=C)C(=O)O[C@@H]2C[C@@H](C)[C@@H]2C=CC(=O)[C@@]12C — 2-fold lower, 5 µM
- C=C1C(=O)O[C@H]2[C@H]1[C@@H](OC(=O)/C(C)=C/C)C/C(C)=C\[C@@]1(OC)C=C(C)[C@@H]2O1 — the same, 10 µM
- C=C(C)C(=O)O[C@H]1[C@@H]2[C@H](C)C(=O)O[C@@H]2C[C@@H](C)[C@@H]2C=CC(=O)[C@]21C — 10-fold higher, 100 µM
- C=C(C)C(=O)O[C@@H]1C[C@@](C)(O)[C@@H]2C(=O)C=C(C)[C@@H]2[C@H]2OC(=O)C(=C)[C@@H]21 — 2-fold higher, 20 µM
- C=C1C(=O)O[C@@H]2/C=C(/CO)[C@@]3(O)C[C@@H](O)[C@@](C)(C[C@@H](OC(=O)/C(C)=C\C)[C@@H]12)O3 — 2-fold higher, 20 µM
- C=C1C(=O)O[C@@H]2/C=C(/CO)C3=CC(=O)[C@@](C)(C[C@H](OC(=O)/C(C)=C\C)[C@@H]12)O3 — 2-fold lower, 5 µM
- C=C1C(=O)O[C@@H]2/C=C(\C)CC/C=C(\C)[C@@H](OC(C)=O)C[C@@H]12 — 20-fold higher, 200 µM
- C=C(C)C(=O)O[C@@H]1/C=C(\C=O)CCCC(=C)[C@H](O)[C@H]2OC(=O)C(=C)[C@@H]21 — the same, 10 µM
- C=C1C(=O)O[C@@H]2/C=C(\C)CC/C=C(\C)CC[C@@H]12 — 5-fold higher, 50 µM
- CC[C@@H](C)[C@@]1(O)O[C@H]2C[C@@]3(C)OC(=CC3=O)/C(COC(C)=O)=C\[C@H]3OC(=O)[C@@]1(C)C23 (stereo partly specified) — 2-fold lower, 5 µM
- C[C@H]1C(=O)O[C@H]2C/C(CO)=C/CC/C(CO)=C/C[C@@H]21 — 30-fold higher, 300 µM
- C=C1C(=O)O[C@@H]2[C@H]1[C@@H](OC(=O)[C@]1(C)O[C@@H]1C)C(=O)[C@@]1(C)C=CC[C@@](C)(O)[C@H]21 — the same, 10 µM
- C=C1C(=O)O[C@@H]2/C=C(/C)C3=CC(=O)[C@@](C)(C[C@@H](OC(=O)/C(C)=C/C)[C@@H]12)O3 — 2-fold lower, 5 µM
- C=C1C(=O)O[C@@H]2C[C@@]3(C)CC(=O)C(OC(C)=O)=C(C)C3C[C@H]12 (stereo partly specified) — 10-fold higher, 100 µM
- C=C1C[C@@H]2OC(=O)C(=C)[C@H]2[C@H](O)/C=C(\C)CCC1=O — 5-fold higher, 50 µM
- C=C1C(=O)O[C@@H]2C[C@H](C)C3=CC(=O)[C@H](C)[C@@H]3C[C@H]12 — 5-fold higher, 50 µM
- C=C1C(=O)O[C@@H]2C[C@@H](C)[C@@H]3C=CC(=O)[C@@]3(C)[C@H](OC(=O)C(C)CC)[C@H]12 (stereo partly specified) — the same, 10 µM
- C=C1C(=O)O[C@@H]2C[C@@]3(C)[C@H](O)CC[C@@](O)(COC(=O)C(C)C)[C@@H]3C[C@H]12 — 20-fold higher, 200 µM
- C[C@@H]1C[C@H]2OC(=O)[C@@H](C)[C@H]2[C@H](O)[C@]2(C)C(=O)C=C[C@@H]12 — 20-fold higher, 200 µM
- C=C1C(=O)O[C@H]2C[C@@H](C)[C@@H]3C=CC(=O)[C@@]3(C)[C@H](O)[C@H]12 — 2-fold higher, 20 µM
- C=C1C(=O)O[C@H]2C/C(CO)=C/CC/C(COC(=O)C(C)C(C)O)=C/C[C@H]12 (stereo partly specified) — 5-fold higher, 50 µM
- C=C(C)C(=O)O[C@H]1C[C@@]2(C)OC(=CC2=O)C(=C)[C@@H](Cl)[C@H]2OC(=O)C(=C)[C@@H]21 — 2-fold lower, 5 µM
- C=C1C(=O)O[C@]23C[C@H]1CCC(CO)=C2C(=O)C=C3C — 5-fold higher, 50 µM
- CC(=O)O[C@H]1[C@@H]2[C@H](C)C(=O)O[C@@H]2C[C@@H](C)[C@@H]2C=CC(=O)[C@]21C — 20-fold higher, 200 µM
- C=C1C(=O)O[C@@H]2/C=C(\COC(=O)C(C)C)CC/C=C(\CO)C(=O)C[C@@H]12 — within 1.5-fold, 12.5 µM
- C=C1C(=O)O[C@H]2/C=C(\C)CC/C=C(\C)[C@@H](OC(=O)/C(C)=C/C)[C@H](O)[C@@H]12 — 10-fold higher, 100 µM
- C=C(C)C(=O)O[C@@H]1C[C@]2(C)CC[C@@](OC)(O2)/C(C)=C\[C@H]2OC(=O)C(=C)[C@@H]21 — 20-fold higher, 200 µM
- C=C(CO)C(=O)OC/C1=C\C[C@@H]2C(=C)C(=O)O[C@H]2C/C(COC(C)=O)=C/CC1 — 5-fold higher, 50 µM
- C=C1C(=O)O[C@@H]2C[C@H](C)[C@@H]3CC(=O)C(C)=C3C[C@H]12 — 5-fold higher, 50 µM
- C=C1[C@H](O)C[C@@H](O)[C@]2(C)CC[C@H]3C(=C)C(=O)O[C@@H]3[C@@H]12 — 20-fold higher, 200 µM
- C=C1C(=O)O[C@H]2C/C(CO)=C/CC/C(COC(=O)C(C)(C)O)=C/C[C@H]12 — 5-fold higher, 50 µM
- C=C1C(=O)O[C@@H]2C[C@@]3(C)[C@H](O)CC=C(COC(=O)C(C)C)[C@@H]3C[C@H]12 — 5-fold higher, 50 µM
- C=C(C)C(=O)O[C@H]1[C@H]2C(=C)C(=O)O[C@@H]2[C@@H](O)[C@@]2(CC/C=C(/C=O)[C@@H]1OC(C)=O)CO2 — 2-fold lower, 5 µM
- C=C1C(=O)O[C@@H]2/C=C(/C)[C@]3(O)O[C@](C)(C[C@@H](OC(=O)C(C)C)[C@@H]12)C(=O)[C@@H]3OC — 20-fold higher, 200 µM
- C=C1C(=O)O[C@H]2C[C@H](C)C3=CC(=O)[C@H](C)C3C[C@H]12 (stereo partly specified) — 2-fold higher, 20 µM
- C=C1C(=O)C=C2[C@H]1C[C@@H]1C(=C)C(=O)O[C@@H]1C[C@@H]2C — the same, 10 µM
- C=C1C(=O)O[C@@H]2[C@H]3C(C)=CC(=O)C3=C(C)CC[C@@H]12 — 5-fold higher, 50 µM
- C=C1C(=O)O[C@@H]2/C=C(\COC(=O)C(C)C)CC/C=C(\CO)[C@H](O)C[C@@H]12 — 10-fold higher, 100 µM
- C=C1C(=O)O[C@@H]2C[C@@H](C)[C@@H]3CCC(=O)[C@@]3(C)C[C@H]12 — 5-fold higher, 50 µM
- C=C1C(=O)O[C@@H]2/C=C(/CO)[C@@]3(O)CC[C@@](C)(C[C@@H](OC(=O)/C(C)=C\C)[C@@H]12)O3 — 2-fold higher, 20 µM
- C=C1C(=O)O[C@H]2C3=C(C(=O)C[C@@H]3C)[C@@H](C)CC[C@@H]12 — 2-fold higher, 20 µM
- C=C1C(=O)O[C@@H]2[C@H]3C(C)=CC[C@H]3[C@](C)(O)C[C@H](OC(C)=O)[C@@H]12 — 2-fold higher, 20 µM
- C=C(C)C(=O)O[C@@H]1C[C@@]2(C)OC(=CC2=O)/C(C)=C\[C@H]2OC(=O)C(=C)[C@@H]21 — the same, 10 µM
- C=C1C(=O)O[C@@H]2[C@@H]3[C@@](C)(CC[C@@H]12)[C@@H](O)C[C@H]1O[C@@]31C — 20-fold higher, 200 µM
- C=C1CCC=C(C)[C@@]2(O)[C@H](OC(=O)[C@]3(C)O[C@@H]3C)[C@@H]3[C@@H](OC(=O)[C@@H]3C)[C@H]12 — 20-fold higher, 200 µM
- C=C1C(=O)O[C@@H]2C3=C(C(=O)C[C@@H]3C)[C@@H](C)CC[C@@H]12 — 2-fold higher, 20 µM
- CC[C@@H](C)[C@@]1(O)O[C@H]2C[C@@]3(C)OC(=CC3=O)/C(CO)=C\[C@H]3OC(=O)[C@@]1(C)C23 (stereo partly specified) — 10-fold higher, 100 µM
- C=C(C)C(=O)OC/C1=C\C[C@@H]2C(=C)C(=O)O[C@H]2C/C(CO)=C/CC1 — 5-fold higher, 50 µM
- C=C1C(=O)O[C@H]2[C@H]1[C@H](OC(=O)[C@@]1(C)O[C@H]1C)[C@@H](OC(C)=O)/C(C(=O)OC)=C\CC[C@@]1(C)O[C@H]21 — the same, 10 µM
- C=C[C@]1(C)CC[C@H]2C(=C)C(=O)O[C@@H]2[C@H]1C(=C)C — 10-fold higher, 100 µM
- C=C1C(=O)O[C@@H]2/C=C(\C)[C@H](OC(C)=O)C/C=C(/C)CC[C@@H]12 — 5-fold higher, 50 µM
